Series [1] has as its system Rattus norvegicus. The experiment in a line: Anti-inflammatory activity in rat assessed as inhibition of formalin-induced paw edema administered as po dose pretreated for 1 hr followed by formalin addition measured up to 6 hrs relative to control. In kind it is functional.
The nature of series [2]: Antioxidant activity assessed as DPPH radical scavenging activity after 30 mins. Type of series: functional. In general terms: Loss of DPPH colour is used to gauge radical scavenging.
Series [3] in a line: Anti glycation activity assessed as inhibition of BSA glycation after 7 days in presence of glucose by spectrofluorimetry assay. Type of series: functional.
Another series concerns MCF7. The experiment in a line: Cytotoxicity against human MCF7 cells after 48 hrs by MTT assay. In kind it is functional, cell-based. The settings on record: MCF7, 48 h. On the technique in general: Tetrazolium assays rely on reduction of a dye to a coloured formazan, in cell work by metabolically active cells.
Series [4] in a line: Hemolytic activity in human RBC relative to control. The settings on record: red blood cells (erythrocytes), read-out: Activity. In kind it is cell-based, Erythrocyte.
Series [5] concerns Rattus norvegicus. The experiment in a line: Anti-inflammatory activity in rat assessed as inhibition of formalin-induced paw edema at 20 mg/kg, po pretreated for 1 hr followed by formalin addition measured up to 6 hrs relative to control. In kind it is functional.

Each structure is given as a SMILES string. pIC50: −log10 of the molar value.

Data on seven compounds can be found in ChEMBL document CHEMBL4364277, “Medicinal prospects of antioxidants: A review” (Eur J Med Chem, 2019).

On to `O=c1oc2ccc(Cl)cc2cc1-c1nc2ccccc2[nH]1`, for which the “inhibition (INH)” value with Rattus norvegicus [1] was determined as 46.75%.

For `O=C(Nc1nc2ccccc2[nH]1)c1cc2ccccc2oc1=O`, in the series on Rattus norvegicus [1], the “inhibition (INH)” value is given as 42.85%.

As a reminder, the pIC50 is the IC50 on a negative log10 scale, so that one unit is a factor of ten. As for `Oc1ccc(-c2nc3ncc(Cl)cc3[nH]2)c(O)c1`, the pIC50 was 4.24 in series [2] and 3.62 in series [3].

`Cc1nnc(N2C(=O)CSC2c2ccccc2[N+](=O)[O-])s1` (centres undefined) showed a pIC50 in the series with MCF7 of 4.33.

Turning to `O=C(Cc1cc(=O)oc2cc(O)ccc12)Nc1nc2ccccc2o1`, the hemolysis in series [4] is 92.5%.

Consider `Oc1ccc(O)c(-c2nc3ncc(Cl)cc3[nH]2)c1`, for which the negative-log IC50 (pIC50) in series [2] is 4.14; in series [3], 3.62.

Broadly, the inhibition in vivo is the change of the read-out against control, counted positive when it falls. On to `COc1ccc2c(c1)c(CC(=O)O)c(C)n2C(=O)c1ccc(Cl)cc1` [INDOMETHACIN], for which, in the series with Rattus norvegicus [5], the inhibition in vivo at 20 mg/kg was 54.5%.
